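48-hour exposure; five concentrations; linearly interpolated endpoints. GI50 is the concentration that inhibits growth by half.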 Active and inactive are the calls of the source. No stated cut-off is given here; in the data, active = GI50 up to about 1.1 µM and inactive = higher.
How the values were obtained:
Test in all cases: growth of human tumour cells (NCI), 48 h
CAKI-1 = tested on: CAKI-1
HCT-116 = tested on: HCT-116
OVCAR-8 = tested on: OVCAR-8
UACC-257 = tested on: UACC-257
HCC 2998 = tested on: HCC 2998
ACHN = tested on: ACHN
SF-268 = tested on: SF-268
CCRF-CEM = tested on: CCRF-CEM
HOP-92 = tested on: HOP-92
SF-295 = tested on: SF-295
KM12 = tested on: KM12
RPMI-8226 = tested on: RPMI-8226
NCI/ADR-RES = tested on: NCI/ADR-RES
SN12C = tested on: SN12C
786-0 = tested on: 786-0
MDA-MB-231 = tested on: MDA-MB-231
UO-31 = tested on: UO-31
HOP-62 = tested on: HOP-62
MDA-MB-435 = tested on: MDA-MB-435
DU-145 = tested on: DU-145
PC-3 = tested on: PC-3
NCI-H23 = tested on: NCI-H23
MOLT-4 = tested on: MOLT-4
SW-620 = tested on: SW-620
Hs-578T = tested on: Hs-578T
OVCAR-5 = tested on: OVCAR-5
UACC-62 = tested on: UACC-62
NCI-H460 = tested on: NCI-H460
HCT-15 = tested on: HCT-15
OVCAR-4 = tested on: OVCAR-4
A549 = tested on: A549
COLO 205 = tested on: COLO 205
Malme-3M = tested on: Malme-3M
RXF 393 = tested on: RXF 393
U-251 = tested on: U-251
SNB-75 = tested on: SNB-75
EKVX = tested on: EKVX
MCF7 = tested on: MCF7
NCI-H522 = tested on: NCI-H522
NCI-H226 = tested on: NCI-H226
SNB-19 = tested on: SNB-19
TK-10 = tested on: TK-10
HT-29 = tested on: HT-29
HL-60 = tested on: HL-60
M14 = tested on: M14
LOX IMVI = tested on: LOX IMVI
BT-549 = tested on: BT-549
T47D = tested on: T47D
SK-OV-3 = tested on: SK-OV-3
IGROV-1 = tested on: IGROV-1
K562 = tested on: K562
MDA-N = tested on: MDA-N
SK-MEL-5 = tested on: SK-MEL-5
SK-MEL-2 = tested on: SK-MEL-2
OVCAR-3 = tested on: OVCAR-3
SK-MEL-28 = tested on: SK-MEL-28
A498 = tested on: A498
SR = tested on: SR

COC(=O)[C@H](Cc1ccccc1)NP(=O)(OCCC#N)OCC1OC(n2cc(C)c(=O)[nH]c2=O)CC1N=[N+]=[N-] (stereo partly drawn)
GI50 (CAKI-1): > 100 µM (inactive) | GI50 (HCT-116): > 100 µM (inactive) | GI50 (OVCAR-8): > 100 µM (inactive) | GI50 (UACC-257): > 100 µM (inactive) | GI50 (HCC 2998): > 100 µM (inactive) | GI50 (ACHN): > 100 µM (inactive) | GI50 (SF-268): > 100 µM (inactive) | GI50 (CCRF-CEM): > 100 µM (inactive) | GI50 (HOP-92): > 100 µM (inactive) | GI50 (SF-295): > 100 µM (inactive) | GI50 (KM12): > 100 µM (inactive) | GI50 (RPMI-8226): > 100 µM (inactive) | GI50 (NCI/ADR-RES): > 100 µM (inactive) | GI50 (SN12C): > 100 µM (inactive) | GI50 (786-0): > 100 µM (inactive) | GI50 (MDA-MB-231): > 100 µM (inactive) | GI50 (UO-31): > 100 µM (inactive) | GI50 (HOP-62): > 100 µM (inactive) | GI50 (MDA-MB-435): > 100 µM (inactive) | GI50 (DU-145): > 100 µM (inactive) | GI50 (PC-3): > 100 µM (inactive) | GI50 (NCI-H23): > 100 µM (inactive) | GI50 (MOLT-4): > 100 µM (inactive) | GI50 (SW-620): > 100 µM (inactive) | GI50 (Hs-578T): > 100 µM (inactive) | GI50 (OVCAR-5): > 100 µM (inactive) | GI50 (UACC-62): > 100 µM (inactive) | GI50 (NCI-H460): > 100 µM (inactive) | GI50 (HCT-15): > 100 µM | GI50 (OVCAR-4): > 100 µM (inactive) | GI50 (A549): > 100 µM (inactive) | GI50 (COLO 205): > 100 µM (inactive) | GI50 (Malme-3M): > 100 µM (inactive) | GI50 (RXF 393): > 100 µM (inactive) | GI50 (U-251): > 100 µM (inactive) | GI50 (SNB-75): > 100 µM (inactive) | GI50 (EKVX): > 100 µM (inactive) | GI50 (MCF7): > 100 µM (inactive) | GI50 (NCI-H522): 35 µM (inactive) | GI50 (NCI-H226): > 100 µM (inactive) | GI50 (SNB-19): > 100 µM (inactive) | GI50 (TK-10): > 100 µM (inactive) | GI50 (HT-29): > 100 µM (inactive) | GI50 (HL-60): > 100 µM (inactive) | GI50 (M14): > 100 µM (inactive) | GI50 (LOX IMVI): > 100 µM (inactive) | GI50 (BT-549): > 100 µM (inactive) | GI50 (T47D): > 100 µM (inactive) | GI50 (SK-OV-3): > 100 µM (inactive) | GI50 (IGROV-1): > 100 µM (inactive) | GI50 (K562): > 100 µM (inactive) | GI50 (MDA-N): > 100 µM (inactive) | GI50 (SK-MEL-5): > 100 µM (inactive) | GI50 (SK-MEL-2): > 100 µM (inactive)

CC(=O)C(=N\Nc1ccc(Cl)cc1)/C(C)=N/c1ccc(C)cc1
GI50 (OVCAR-3): 24.6 µM (inactive) | GI50 (CAKI-1): 49.3 µM (inactive) | GI50 (HCT-116): 36.8 µM (inactive) | GI50 (SK-MEL-28): 48.8 µM (inactive) | GI50 (OVCAR-8): 35.6 µM (inactive) | GI50 (UACC-257): 53.2 µM (inactive) | GI50 (A498): 11.9 µM (inactive) | GI50 (ACHN): 21.9 µM (inactive) | GI50 (SF-268): 35.6 µM (inactive) | GI50 (CCRF-CEM): 11.2 µM (inactive) | GI50 (HOP-92): 16.6 µM (inactive) | GI50 (SF-295): 32.4 µM (inactive) | GI50 (KM12): 27.1 µM (inactive) | GI50 (RPMI-8226): 18.7 µM (inactive) | GI50 (NCI/ADR-RES): 25.6 µM (inactive) | GI50 (SN12C): 45.7 µM (inactive) | GI50 (786-0): 37.2 µM (inactive) | GI50 (MDA-MB-231): 37.5 µM (inactive) | GI50 (UO-31): 30.1 µM (inactive) | GI50 (SR): > 100 µM (inactive) | GI50 (HOP-62): > 10 µM (inactive) | GI50 (MDA-MB-435): 30.4 µM (inactive) | GI50 (DU-145): 30.8 µM (inactive) | GI50 (PC-3): 28.6 µM (inactive) | GI50 (NCI-H23): 38.1 µM (inactive) | GI50 (MOLT-4): 16.7 µM (inactive) | GI50 (SW-620): 41.6 µM (inactive) | GI50 (Hs-578T): 44.4 µM (inactive) | GI50 (OVCAR-5): 34 µM (inactive) | GI50 (UACC-62): 49.1 µM (inactive) | GI50 (HCT-15): 45.6 µM | GI50 (OVCAR-4): > 100 µM (inactive) | GI50 (A549): 29.3 µM (inactive) | GI50 (COLO 205): 21.3 µM (inactive) | GI50 (Malme-3M): 20.7 µM (inactive) | GI50 (RXF 393): 23 µM (inactive) | GI50 (U-251): 31.6 µM (inactive) | GI50 (SNB-75): 44 µM (inactive) | GI50 (EKVX): 21.3 µM (inactive) | GI50 (NCI-H522): 19.7 µM (inactive) | GI50 (NCI-H226): 29.6 µM (inactive) | GI50 (SNB-19): 63.1 µM (inactive) | GI50 (TK-10): 33.5 µM (inactive) | GI50 (HT-29): 22.5 µM (inactive) | GI50 (M14): 22.1 µM (inactive) | GI50 (LOX IMVI): 45 µM (inactive) | GI50 (BT-549): 51.4 µM (inactive) | GI50 (T47D): 38.5 µM (inactive) | GI50 (SK-OV-3): 46 µM (inactive) | GI50 (IGROV-1): 32.7 µM (inactive) | GI50 (K562): 33 µM (inactive) | GI50 (MDA-N): 31.9 µM (inactive) | GI50 (SK-MEL-5): 19 µM (inactive) | GI50 (SK-MEL-2): 18.4 µM (inactive)

From ChEMBL document CHEMBL1201862, “PubChem BioAssay data set” (2004)
